The values that follow come from ChEMBL document CHEMBL1140810, “Conversion of an MMP-potent scaffold to an MMP-selective HER-2 sheddase inhibitor via scaffold hybridization and subtle P1' permutations” (Bioorg Med Chem Lett, 2008).

Test [1] addresses T1, Disintegrin and metalloproteinase domain-containing protein 10 (Homo sapiens, UniProt O14672).
T1 sequence (O14672 whole entry): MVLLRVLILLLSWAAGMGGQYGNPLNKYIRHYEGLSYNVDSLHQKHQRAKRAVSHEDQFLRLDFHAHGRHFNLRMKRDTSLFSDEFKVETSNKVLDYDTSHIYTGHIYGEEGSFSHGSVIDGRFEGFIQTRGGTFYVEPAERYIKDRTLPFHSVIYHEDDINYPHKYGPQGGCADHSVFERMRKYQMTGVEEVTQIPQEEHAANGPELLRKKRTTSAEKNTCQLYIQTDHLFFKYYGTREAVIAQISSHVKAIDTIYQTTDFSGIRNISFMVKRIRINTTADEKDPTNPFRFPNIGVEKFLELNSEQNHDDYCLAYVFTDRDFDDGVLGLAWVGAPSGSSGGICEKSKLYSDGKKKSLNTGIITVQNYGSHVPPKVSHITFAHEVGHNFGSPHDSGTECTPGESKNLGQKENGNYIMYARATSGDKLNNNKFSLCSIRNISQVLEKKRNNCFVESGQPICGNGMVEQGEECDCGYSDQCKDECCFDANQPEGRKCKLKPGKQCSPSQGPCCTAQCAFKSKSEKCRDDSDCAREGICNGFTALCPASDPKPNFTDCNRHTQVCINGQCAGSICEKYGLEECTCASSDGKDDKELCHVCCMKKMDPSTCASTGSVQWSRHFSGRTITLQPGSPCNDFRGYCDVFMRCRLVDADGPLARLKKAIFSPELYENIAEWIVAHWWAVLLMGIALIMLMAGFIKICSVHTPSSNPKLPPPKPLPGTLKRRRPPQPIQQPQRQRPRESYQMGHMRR
The experiment in a line: Inhibition of HER2 sheddase in human BT474 cells. The test is classed as cell-based, BT-474.

In test [2] the target is 72 kDa type IV collagenase (Homo sapiens, UniProt P08253).
Test [3] has as its target T1, Disintegrin and metalloproteinase domain-containing protein 10.
Test [4] has as its target T2, Interstitial collagenase (Homo sapiens, UniProt P03956).
T2 sequence (P03956 whole entry): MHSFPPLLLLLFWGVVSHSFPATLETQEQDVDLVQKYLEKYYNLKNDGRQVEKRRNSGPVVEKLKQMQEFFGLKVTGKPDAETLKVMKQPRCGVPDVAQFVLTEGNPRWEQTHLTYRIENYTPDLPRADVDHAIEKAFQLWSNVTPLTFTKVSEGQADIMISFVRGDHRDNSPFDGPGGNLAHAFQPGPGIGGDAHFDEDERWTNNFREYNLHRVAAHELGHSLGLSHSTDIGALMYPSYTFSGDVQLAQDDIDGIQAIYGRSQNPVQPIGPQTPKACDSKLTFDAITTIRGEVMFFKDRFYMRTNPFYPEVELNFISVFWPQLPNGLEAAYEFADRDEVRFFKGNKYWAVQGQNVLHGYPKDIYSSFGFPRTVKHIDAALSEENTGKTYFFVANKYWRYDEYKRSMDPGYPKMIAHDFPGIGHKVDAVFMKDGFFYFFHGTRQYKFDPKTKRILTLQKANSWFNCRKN

Chain of 72 kDa type IV collagenase (P08253 whole entry, the tested form may be a part): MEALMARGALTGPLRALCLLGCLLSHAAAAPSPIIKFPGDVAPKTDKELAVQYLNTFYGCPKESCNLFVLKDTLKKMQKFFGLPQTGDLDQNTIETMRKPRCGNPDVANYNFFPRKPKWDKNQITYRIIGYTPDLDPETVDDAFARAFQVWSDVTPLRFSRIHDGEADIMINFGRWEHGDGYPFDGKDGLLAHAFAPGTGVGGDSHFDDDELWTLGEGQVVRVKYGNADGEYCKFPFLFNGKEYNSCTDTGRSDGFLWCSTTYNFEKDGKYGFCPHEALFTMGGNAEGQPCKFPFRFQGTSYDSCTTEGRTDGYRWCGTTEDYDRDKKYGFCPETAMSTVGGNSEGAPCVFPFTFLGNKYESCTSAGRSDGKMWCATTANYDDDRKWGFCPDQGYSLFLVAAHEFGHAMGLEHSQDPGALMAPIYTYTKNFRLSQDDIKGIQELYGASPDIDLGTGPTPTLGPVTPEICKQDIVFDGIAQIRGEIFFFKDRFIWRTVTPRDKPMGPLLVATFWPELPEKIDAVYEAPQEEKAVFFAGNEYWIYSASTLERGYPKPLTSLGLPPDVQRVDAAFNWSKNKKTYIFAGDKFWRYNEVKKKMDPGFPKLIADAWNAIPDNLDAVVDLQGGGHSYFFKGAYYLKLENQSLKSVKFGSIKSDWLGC

With `O=C(O[C@H]1CCOC1)N1CCC(CS(=O)(=O)N2CCC(c3ccccc3)C2)(C(=O)NO)CC1` (stereo partly drawn), the half-inhibitory concentration (IC50) (as a rule, the concentration needed to halve the response being measured) in test [1] came out at 358 nM; in test [2], 549 nM; in test [3], 261 nM.

With `Cc1cc(C#N)ccc1C1CCN(S(=O)(=O)CC2(C(=O)NO)CCN(C(=O)OC[C@@H]3CCCN3)CC2)CC1`, the half-maximal inhibitory concentration (IC50) was 6.5 nM in test [1], 1270 nM in test [2], 9.1 nM in test [3] and over 5000 nM in test [4].

Regarding `Cc1ccccc1C1CCN(S(=O)(=O)CC2(C(=O)NO)CCN(C(=O)OC3COCC3(C)C)CC2)CC1` (stereo not drawn), the concentration for half-maximal inhibition (IC50) was 14 nM in test [1], 574 nM in test [2], 22 nM in test [3] and over 5000 nM in test [4].

For the compound `Cc1ccccc1C1CCN(S(=O)(=O)CC2(C(=O)NO)CCN(C(=O)OC3(C)CCOC3)CC2)CC1` (stereo not drawn), the half-inhibitory concentration (IC50) was 36 nM in test [1], 564 nM in test [2], 11 nM in test [3] and over 5000 nM in test [4].

Take `O=C(O[C@H]1CCOC1)N1CCC(CS(=O)(=O)N2CCC(c3ccccc3C(F)(F)F)CC2)(C(=O)NO)CC1`: the 50% inhibitory concentration (IC50) in test [1] is over 1000 nM; in test [2], over 2000 nM; in test [3], 1040 nM.

With `Cc1cc(C#N)ccc1C1CCN(S(=O)(=O)CC2(C(=O)NO)CCN(C(=O)OC3CCNC3)CC2)CC1` (stereo not drawn), the IC50 in test [1] was 13 nM; in test [2], over 2000 nM; in test [3], 7.8 nM; in test [4], over 5000 nM.

Regarding `N#Cc1ccc(C2CCN(S(=O)(=O)CC3(C(=O)NO)CCN(C(=O)O[C@H]4CCOC4)CC3)CC2)cc1`, the figures for the IC50 in test [1], in test [2] and in test [3] were 77 nM, 9 nM and 39 nM, respectively.

Consider `Cc1ccccc1C1CCN(S(=O)(=O)CC2(C(=O)NO)CCN(C(=O)OC[C@@H]3CCCN3)CC2)CC1`, for which the IC50 is 23 nM in test [1], over 2000 nM in test [2], 34 nM in test [3] and over 5000 nM in test [4].

On to `Cc1ccccc1C1CCN(S(=O)(=O)CC2(C(=O)NO)CCN(C(=O)OC3CCNC3)CC2)CC1` (stereo not drawn), for which the half-maximal inhibitory concentration (IC50) in test [1] was 16 nM; in test [2], 546 nM; in test [3], 18 nM; in test [4] it was over 5000 nM.

Consider `Cc1ccccc1C1CCN(S(=O)(=O)CC2(C(=O)NO)CCN(C(=O)OC[C@H]3CCCN3)CC2)CC1`, for which the half-inhibitory concentration (IC50) in test [1] was 30 nM; in test [2] it was over 2000 nM; in test [3], 19 nM; in test [4], over 5000 nM.

For `N#Cc1ccccc1C1CCN(S(=O)(=O)CC2(C(=O)NO)CCN(C(=O)O[C@H]3CCOC3)CC2)CC1`, the IC50 in test [1] is over 1000 nM; in test [2], over 2000 nM; in test [3], over 2000 nM.

`Cc1cc(F)ccc1C1CCN(S(=O)(=O)CC2(C(=O)NO)CCN(C(=O)O[C@H]3CCOC3)CC2)CC1`: the figures for the half-inhibitory concentration (IC50) in test [1], in test [2] and in test [3] were 141 nM, over 2000 nM and 92 nM, respectively.

Turning to `O=C(O[C@H]1CCOC1)N1CCC(CS(=O)(=O)N2CC=C(c3ccccc3)C2)(C(=O)NO)CC1`, the IC50 in test [1] came out at 102 nM; in test [2], 52 nM; in test [3] it was 332 nM.

Turning to `Cc1cc(C#N)ccc1C1=CCN(S(=O)(=O)CC2(C(=O)NO)CCN(C(=O)O[C@H]3CCOC3)CC2)CC1`, the half-inhibitory concentration (IC50) in test [1] was 45 nM; in test [2], 1560 nM; in test [3] it was 107 nM.

On to `Cc1cc(C(=O)N(C)C)ccc1C1CCN(S(=O)(=O)CC2(C(=O)NO)CCN(C(=O)O[C@H]3CCOC3)CC2)CC1`, for which the IC50 is over 1000 nM in test [1], 655 nM in test [2] and over 2000 nM in test [3].

Take `Cc1ccccc1N1CCN(S(=O)(=O)CC2(C(=O)NO)CCN(C(=O)O[C@H]3CCOC3)CC2)CC1`: the half-maximal inhibitory concentration (IC50) in test [1] is 217 nM; in test [2], over 2000 nM; in test [3], 107 nM.

In the case of `Cc1ccccc1C1=CCN(S(=O)(=O)CC2(C(=O)NO)CCN(C(=O)O[C@H]3CCOC3)CC2)CC1`, the IC50 was determined as 133 nM in test [1], 2000 nM in test [2] and 18 nM in test [3].
